Patent US20250113823A1, “Arthropod Control Compositions” (priority 2022, published 2025)
Where two headings read alike, the source gives them in different places.

Legend:
Aedes aegypti [1] = assay: Warm Body assay, mosquito landings on treated warm body; assay type: in vivo; details: for pest or weed control at 16 µg/mL / pest or weed control at 400 µg/mL / pest or weed control at 10000 µg/mL: read-out: Percentage of repellence of mosquitoes Aedes aegypti landing on the warm body; for pest or weed control at 0.04 %: intermediate concentration of 0.04% (Table 3)
How it was run: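 Compounds in ethanol (100 μL, various concentrations) were applied to a sandblasted glass dish covering the warm body (28.3 cm^2), with ethanol as control. Landings were counted automatically from 30 non-blood-fed, sugar-fed Aedes aegypti Rockefeller females aged 5–10 days, under 150 lux.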

Ixodes ricinus = assay: Warm Plate assay, tick repellence; details: for pest or weed control at 400 µg/mL / pest or weed control at 2000 µg/mL / pest or weed control at 10000 µg/mL: Ixodes ricinus, read-out: Percentage of repellence of ticks Ixodes ricinus on the warm plate
Anopheles gambiae = assay: Warm Body assay, mosquito landings on treated warm body; assay type: in vivo
Protocol: Anopheles gambiae is also a model organism as it is anthropophilic and transmits malaria.
The controlling effect according to the present invention was assessed using an adapted Warm Body assay as defined in Kröber T, Kessler S, Frei J, Bourquin M, Guerin P M. 2010. J Am Mosq Control Assoc. 26: 381-386. In this in-vitro assay the number of mosquito landing on a warm body, simulating an attractive host treated with the tested stimuli, was measured in order to assess the repellence effect.
On the sandblasted glass Petri dish covering the warm body (28.3 cm^2), 100 μL of the compounds diluted at different concentrations in ethanol was applied. The number of mosquito landing on the warm body was counted for each stimulus and pure ethanol (solvent) as control.

Aedes aegypti [2] = assay: Free flying room assay, spatial repellence with human volunteer; assay type: in vivo
Text: The goal of this large-scale test is to assess the propensity of stimulus released in the air to protect a human volunteer by limiting the mosquito presence in a protected space and the number of landing/biting. The protocol used to carry the test is following the guidelines indicated in WHO (2013; ISBN 978 92 4 150502 4).
A group of 50 Aedes aegypti female mosquitoes were introduced in one chamber of 25 m^3 one hour before the test started. The product was applied in the other chamber of 25 m^3 (“treated chamber”) and let evaporate for 30 minutes. The test started when the window separating the two chambers was opened in a tilt-on manner for another 30 minutes. Twenty minutes after the window was opened, a volunteer entered in the “treated chamber” and sat down for 10 minutes, exposing the forearm for the last 3 minutes to determine the probing activity (Protective Efficacy). Then, the connecting window was closed and the number of mosquitoes in each of the chambers was counted (Spatial Repellency). The negative controls were carried out following the same procedure but without the application of the stimulus. Three replicates of each treatment and of the negative control were conducted with three different volunteers.

[3] = Aedes aegypti, 0.016 mg/mL (Table 3)
[4] = Aedes aegypti, 0.4 mg/mL (Table 3)
[5] = Aedes aegypti, 10 mg/mL (Table 3)
[6] = Aedes aegypti, read-out: repellence

COc1ccc(C(C)=O)c(OC)c1 [compound 1557, 2,4-dimethoxyacetophenone]
Percentage of repellence of mosquitoes Aedes aegypti landing on the warm body (Aedes aegypti [1]; 0.016 mg/mL (Table 3)): 81% | Percentage of repellence of mosquitoes Aedes aegypti landing on the warm body (Aedes aegypti [1]; 0.4 mg/mL (Table 3)): 93% | Percentage of repellence of mosquitoes Aedes aegypti landing on the warm body (Aedes aegypti [1]; 10 mg/mL (Table 3)): 96% | Percentage of repellence of ticks Ixodes ricinus on the warm plate (Ixodes ricinus; 0.4 mg/mL (Table 10)): 25.0% | Percentage of repellence of ticks Ixodes ricinus on the warm plate (Ixodes ricinus; 2 mg/mL (Table 10)): 69.2% | Percentage of repellence of ticks Ixodes ricinus on the warm plate (Ixodes ricinus; 10 mg/mL (Table 10)): 66.7%

COc1ccc(C=O)c(OC)c1 [compound 1558, 2,4-dimethoxybenzaldehyde]
pest or weed control at 16 µg/mL (Aedes aegypti [1]; [3]): 86% | pest or weed control at 400 µg/mL (Aedes aegypti [1]; [4]): 89% | pest or weed control at 10000 µg/mL (Aedes aegypti [1]; [5]): 86% | pest or weed control at 0.04 % (Aedes aegypti [1]; [6]): > 75% | pest or weed control at 0.0016 % (Aedes aegypti [1]; Aedes aegypti, lowest concentration of 0.0016% (Table 3), read-out: reduce the number of mosquito landings): > 50% | pest or weed control at 400 µg/mL (Ixodes ricinus): 16.7% | pest or weed control at 2000 µg/mL (Ixodes ricinus): 38.5% | pest or weed control at 10000 µg/mL (Ixodes ricinus): 91.7%

COc1ccc(C(C)=O)c(O)c1 [compound 1559, 2-hydroxy-4-methoxyacetophenone]
Percentage of repellence of mosquitoes Aedes aegypti landing on the warm body (Aedes aegypti [1]; 0.016 mg/mL (Table 3)): 90% | Percentage of repellence of mosquitoes Aedes aegypti landing on the warm body (Aedes aegypti [1]; 0.4 mg/mL (Table 3)): 98% | Percentage of repellence of mosquitoes Aedes aegypti landing on the warm body (Aedes aegypti [1]; 10 mg/mL (Table 3)): 98% | Percentage of repellence of ticks Ixodes ricinus on the warm plate (Ixodes ricinus; 0.4 mg/mL (Table 10)): 13.3% | Percentage of repellence of ticks Ixodes ricinus on the warm plate (Ixodes ricinus; 2 mg/mL (Table 10)): 57.1% | Percentage of repellence of ticks Ixodes ricinus on the warm plate (Ixodes ricinus; 10 mg/mL (Table 10)): 91.7%

COc1cc(C)cc(OC)c1OC [compound 1967, 3,4,5-trimethoxytoluene]
pest or weed control at 3.2 µg/mL (Anopheles gambiae; Anopheles gambiae, 0.0032 mg/mL (Table 5), read-out: Percentage of repellence of mosquitoes Anopheles gambiae landing on the warm body): 0% | pest or weed control at 16 µg/mL (Anopheles gambiae; Anopheles gambiae, 0.016 mg/mL (Table 5), read-out: Percentage of repellence of mosquitoes Anopheles gambiae landing on the warm body): 0% | pest or weed control at 80 µg/mL (Anopheles gambiae; Anopheles gambiae, 0.08 mg/mL (Table 5), read-out: Percentage of repellence of mosquitoes Anopheles gambiae landing on the warm body): 1% | pest or weed control at 178 µg/mL (Anopheles gambiae; Anopheles gambiae, 0.178 mg/mL (Table 4), read-out: Percentage of repellence of mosquitoes Anopheles gambiae landing on the warm body): 65% | pest or weed control at 178 µg/mL (Anopheles gambiae; Anopheles gambiae, 0.178 mg/mL (Table 5), read-out: Percentage of repellence of mosquitoes Anopheles gambiae landing on the warm body): 59% | pest or weed control at 267 µg/mL (Anopheles gambiae; Anopheles gambiae, 0.267 mg/mL (Table 4), read-out: Percentage of repellence of mosquitoes Anopheles gambiae landing on the warm body): 78% | pest or weed control at 267 µg/mL (Anopheles gambiae; Anopheles gambiae, 0.267 mg/mL (Table 5), read-out: Percentage of repellence of mosquitoes Anopheles gambiae landing on the warm body): 82% | pest or weed control at 400 µg/mL (Anopheles gambiae; Anopheles gambiae, 0.4 mg/mL (Table 4), read-out: Percentage of repellence of mosquitoes Anopheles gambiae landing on the warm body): 84% | pest or weed control at 400 µg/mL (Anopheles gambiae; Anopheles gambiae, 0.4 mg/mL (Table 5), read-out: Percentage of repellence of mosquitoes Anopheles gambiae landing on the warm body): 71% | pest or weed control at 2000 µg/mL (Anopheles gambiae; Anopheles gambiae, 2 mg/mL (Table 5), read-out: Percentage of repellence of mosquitoes Anopheles gambiae landing on the warm body): 100% | pest or weed control at 4470 µg/mL (Anopheles gambiae; Anopheles gambiae, 4.47 mg/mL (Table 4), read-out: Percentage of repellence of mosquitoes Anopheles gambiae landing on the warm body): 100% | pest or weed control at 4470 µg/mL (Anopheles gambiae; Anopheles gambiae, 4.47 mg/mL (Table 5), read-out: Percentage of repellence of mosquitoes Anopheles gambiae landing on the warm body): 100% | pest or weed control at 10000 µg/mL (Anopheles gambiae; Anopheles gambiae, 10 mg/mL (Table 4), read-out: Percentage of repellence of mosquitoes Anopheles gambiae landing on the warm body): 100% | pest or weed control at 10000 µg/mL (Anopheles gambiae; Anopheles gambiae, 10 mg/mL (Table 5), read-out: Percentage of repellence of mosquitoes Anopheles gambiae landing on the warm body): 100% | repellence (Anopheles gambiae; concentration ≥0.0178% (Table 5)): > 50% | landing (Anopheles gambiae; concentrations ≥0.2% (Table 5)): no landing at all | percentage of repellence (Anopheles gambiae; lowest concentration tested, 0.0178% (Table 4)): above 60% | repellence (no mosquito landing on the attractive stimulus) (Anopheles gambiae; with at least one of the two concentrations 0.447% & 1% (Table 4)): 100% | mosquitoes landed on the volunteer (Aedes aegypti [2]; in 3 minutes, negative control 60.7±2.5 landings): 22.3±3.2 | Spatial Repellence (Aedes aegypti [2]; large scale assay, 25 m3 chambers, compound released in the air): 47.3 ± 3.8% | Protective efficacy (Aedes aegypti [2]; large scale assay, probing on volunteer forearm, 3 minutes): 63.1 ± 5.5% | mosquito entered the treated chamber (Aedes aegypti [2]; negative control 82.5±3.7%): 43.5±3.2% | pest or weed control at 16 µg/mL (Aedes aegypti [1]; [3]): 0% | pest or weed control at 400 µg/mL (Aedes aegypti [1]; [4]): 12% | pest or weed control at 10000 µg/mL (Aedes aegypti [1]; [5]): 81%

COc1ccc(C=O)c(OC)c1OC [compound 2267, 2,3,4-trimethoxybenzaldehyde]
pest or weed control at 16 µg/mL (Aedes aegypti [1]; [3]): 0% | pest or weed control at 400 µg/mL (Aedes aegypti [1]; [4]): 81% | pest or weed control at 10000 µg/mL (Aedes aegypti [1]; [5]): 96% | pest or weed control at 1 % (Aedes aegypti [1]; Aedes aegypti, highest tested concentration, 1% (Table 3), read-out: repellence): > 90% | pest or weed control at 0.04 % (Aedes aegypti [1]; [6]): > 75% | pest or weed control at 400 µg/mL (Ixodes ricinus): 66.7% | pest or weed control at 2000 µg/mL (Ixodes ricinus): 86.7% | pest or weed control at 10000 µg/mL (Ixodes ricinus): 71.4%
